Measured values from patent EP0071087A1, “Improved determination of creatine phosphokinase in body fluids” (SERAGEN DIAGNOSTICS, INC., priority 1981, dated 1983).

Biological target: T1, Purified Human Erythrocyte Adenylate Kinase (Homo sapiens, UniProt P00568)
T1 construct: from tissue; host or cells: human erythrocytes
T1 sequence (P00568 1-194): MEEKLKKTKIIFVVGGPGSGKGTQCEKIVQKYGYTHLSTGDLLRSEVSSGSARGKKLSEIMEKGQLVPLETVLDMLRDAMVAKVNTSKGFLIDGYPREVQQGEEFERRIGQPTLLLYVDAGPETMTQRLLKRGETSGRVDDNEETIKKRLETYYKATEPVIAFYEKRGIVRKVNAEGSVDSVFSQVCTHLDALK
Assay: Inhibition of purified human erythrocyte adenylate kinase in a CPK-UV (Oliver-Rosalki) assay
Type: biochemical
Details: 37°C
Description: Table I illustrates the utilization of a high AMP/ ADP ratio in inhibiting purified human erythrocyte adenylate kinase. Residual AK activity is measured in reagent systems containing all necessary components of the Oliver-Rosalki CPK assay. The systems vary as a function of three components: AMP, ADP, and sodium fluoride. The data points cover a 1.43-5.72m Mole/liter ADP range and a 2.9-29.2m Mole/liter AMP range plus or minus 6m Mole/ liter NaF.
The reagents of Example 1 and 2 were utilized with the AMP and ADP concentration listed in the table, with or without 6 m mole/liter sodium fluoride.

Molecule: sodium fluoride [NaF]
- Measured Residual Adenylate Kinase (+NaF) (ADP 1.43 mM, AMP 0 mM, 6 m mole/liter NaF): 327 U/l
- Measured Residual Adenylate Kinase (+NaF) (ADP 2.86 mM, AMP 0 mM, 6 m mole/liter NaF): 398 U/l
- Measured Residual Adenylate Kinase (+NaF) (ADP 5.72 mM, AMP 0 mM, 6 m mole/liter NaF): 460 U/l

Molecule: Nc1ncnc2c1ncn2[C@@H]1O[C@H](COP(=O)(O)O)[C@@H](O)[C@H]1O [AMP, adenosine monophosphate]
- Measured Residual Adenylate Kinase (+NaF) (ADP 1.43 mM, AMP 2.9 mM, AMP/ADP 2.0, 6 m mole/liter NaF): 24 U/l
- Measured Residual Adenylate Kinase (-NaF) (ADP 1.43 mM, AMP 2.9 mM, AMP/ADP 2.0, no NaF): 103 U/l
- Measured Residual Adenylate Kinase (+NaF) (ADP 1.43 mM, AMP 5.8 mM, AMP/ADP 4.1, 6 m mole/liter NaF): 13 U/l
- Measured Residual Adenylate Kinase (-NaF) (ADP 1.43 mM, AMP 5.8 mM, AMP/ADP 4.1, no NaF): 61 U/l
- Measured Residual Adenylate Kinase (+NaF) (ADP 1.43 mM, AMP 7.3 mM, AMP/ADP 5.1, 6 m mole/liter NaF): 10 U/l
- Measured Residual Adenylate Kinase (-NaF) (ADP 1.43 mM, AMP 7.3 mM, AMP/ADP 5.1, no NaF): 56 U/l
- Measured Residual Adenylate Kinase (+NaF) (ADP 1.43 mM, AMP 10.2 mM, AMP/ADP 7.1, 6 m mole/liter NaF): 7.7 U/l
- Measured Residual Adenylate Kinase (-NaF) (ADP 1.43 mM, AMP 10.2 mM, AMP/ADP 7.1, no NaF): 35 U/l
- Measured Residual Adenylate Kinase (+NaF) (ADP 1.43 mM, AMP 14.6 mM, AMP/ADP 10.2, 6 m mole/liter NaF): 5.3 U/l
- Measured Residual Adenylate Kinase (-NaF) (ADP 1.43 mM, AMP 14.6 mM, AMP/ADP 10.2, no NaF): 333 U/l
- Measured Residual Adenylate Kinase (+NaF) (ADP 1.43 mM, AMP 21.9 mM, AMP/ADP 15.3, 6 m mole/liter NaF): 4.6 U/l
- Measured Residual Adenylate Kinase (-NaF) (ADP 1.43 mM, AMP 21.9 mM, AMP/ADP 15.3, no NaF): 19 U/l
- Measured Residual Adenylate Kinase (+NaF) (ADP 1.43 mM, AMP 29.2 mM, AMP/ADP 20.4, 6 m mole/liter NaF): 1.7 U/l
- Measured Residual Adenylate Kinase (-NaF) (ADP 1.43 mM, AMP 29.2 mM, AMP/ADP 20.4, no NaF): 17 U/l
- Measured Residual Adenylate Kinase (+NaF) (ADP 2.86 mM, AMP 2.9 mM, AMP/ADP 1.0, 6 m mole/liter NaF): 51 U/l
- Measured Residual Adenylate Kinase (-NaF) (ADP 2.86 mM, AMP 2.9 mM, AMP/ADP 1.0, no NaF): 166 U/l
- Measured Residual Adenylate Kinase (+NaF) (ADP 2.86 mM, AMP 5.8 mM, AMP/ADP 2.0, 6 m mole/liter NaF): 26 U/l
- Measured Residual Adenylate Kinase (-NaF) (ADP 2.86 mM, AMP 5.8 mM, AMP/ADP 2.0, no NaF): 126 U/l
- Measured Residual Adenylate Kinase (+NaF) (ADP 2.86 mM, AMP 7.3 mM, AMP/ADP 2.6, 6 m mole/liter NaF): 22 U/l
- Measured Residual Adenylate Kinase (-NaF) (ADP 2.86 mM, AMP 7.3 mM, AMP/ADP 2.6, no NaF): 93 U/l
- Measured Residual Adenylate Kinase (+NaF) (ADP 2.86 mM, AMP 10.2 mM, AMP/ADP 3.6, 6 m mole/liter NaF): 17 U/l
- Measured Residual Adenylate Kinase (-NaF) (ADP 2.86 mM, AMP 10.2 mM, AMP/ADP 3.6, no NaF): 84 U/l
- Measured Residual Adenylate Kinase (+NaF) (ADP 2.86 mM, AMP 14.6 mM, AMP/ADP 5.1, 6 m mole/liter NaF): 13 U/l
- Measured Residual Adenylate Kinase (-NaF) (ADP 2.86 mM, AMP 14.6 mM, AMP/ADP 5.1, no NaF): 64 U/l
- Measured Residual Adenylate Kinase (+NaF) (ADP 2.86 mM, AMP 21.9 mM, AMP/ADP 7.7, 6 m mole/liter NaF): 10 U/l
- Measured Residual Adenylate Kinase (-NaF) (ADP 2.86 mM, AMP 21.9 mM, AMP/ADP 7.7, no NaF): 32 U/l
- Measured Residual Adenylate Kinase (+NaF) (ADP 2.86 mM, AMP 29.2 mM, AMP/ADP 10.2, 6 m mole/liter NaF): 5.3 U/l
- Measured Residual Adenylate Kinase (-NaF) (ADP 2.86 mM, AMP 29.2 mM, AMP/ADP 10.2, no NaF): 28 U/l
- Measured Residual Adenylate Kinase (+NaF) (ADP 5.72 mM, AMP 2.9 mM, AMP/ADP 0.51, 6 m mole/liter NaF): 108 U/l
- Measured Residual Adenylate Kinase (-NaF) (ADP 5.72 mM, AMP 2.9 mM, AMP/ADP 0.51, no NaF): 203 U/l
- Measured Residual Adenylate Kinase (+NaF) (ADP 5.72 mM, AMP 5.8 mM, AMP/ADP 1.0, 6 m mole/liter NaF): 55 U/l
- Measured Residual Adenylate Kinase (-NaF) (ADP 5.72 mM, AMP 5.8 mM, AMP/ADP 1.0, no NaF): 186 U/l
- Measured Residual Adenylate Kinase (+NaF) (ADP 5.72 mM, AMP 7.3 mM, AMP/ADP 1.3, 6 m mole/liter NaF): 54 U/l
- Measured Residual Adenylate Kinase (-NaF) (ADP 5.72 mM, AMP 7.3 mM, AMP/ADP 1.3, no NaF): 126 U/l
- Measured Residual Adenylate Kinase (+NaF) (ADP 5.72 mM, AMP 10.2 mM, AMP/ADP 1.8, 6 m mole/liter NaF): 37 U/l
- Measured Residual Adenylate Kinase (-NaF) (ADP 5.72 mM, AMP 10.2 mM, AMP/ADP 1.8, no NaF): 114 U/l
- Measured Residual Adenylate Kinase (+NaF) (ADP 5.72 mM, AMP 14.6 mM, AMP/ADP 2.6, 6 m mole/liter NaF): 31 U/l
- Measured Residual Adenylate Kinase (-NaF) (ADP 5.72 mM, AMP 14.6 mM, AMP/ADP 2.6, no NaF): 108 U/l
- Measured Residual Adenylate Kinase (+NaF) (ADP 5.72 mM, AMP 21.9 mM, AMP/ADP 3.8, 6 m mole/liter NaF): 21 U/l
- Measured Residual Adenylate Kinase (-NaF) (ADP 5.72 mM, AMP 21.9 mM, AMP/ADP 3.8, no NaF): 66 U/l
- Measured Residual Adenylate Kinase (+NaF) (ADP 5.72 mM, AMP 29.2 mM, AMP/ADP 5.1, 6 m mole/liter NaF): 13 U/l
- Measured Residual Adenylate Kinase (-NaF) (ADP 5.72 mM, AMP 29.2 mM, AMP/ADP 5.1, no NaF): 62 U/l
